The values that follow come from patent publication US20080160019A1, “SEQUENTIAL COMBINATION THERAPY” (DYAX CORP., priority 2006, published 2008).

Type in all cases: in vivo, nude mice (nu/nu)
Test [1] concerns BxPC3 (human pancreatic cancer cell line) tumor. The test is described as follows: Pancreatic cancer xenograft model, tumor size by calipers (Example 3). As to calculated tumor growth rate, After Avastin: unit not given here. As to calculated tumor growth rate, Before Avastin (Day 10): unit not given here. As to calculated tumor growth rate, Before Avastin (Day 21): unit not given here. As for the experimental part: The antitumor activity of combinations of DX-2240 and bevacizumab (anti-VEGF antibody) or sorafenib (multi-kinase inhibitor) were tested in a human tumor xenograft model. BxPC3 (human pancreatic cancer cell line) tumor fragments harvested from host nude mice (nu/nu) bearing subcutaneous BxPC-3 tumors were implanted subcutaneously into female nude mice (study animals) and allowed to form tumors. Mice were pair matched by tumor size and randomized into the various treatment groups when the tumors reached approximately 100 mm^3 (about 18 days following tumor implantation). The animals were assorted into the treatment groups shown in Table 1 (“Start” refers to the day on which treatment was begun). DX-2240 was administered by intraperitoneal (IP) injection at 20 mg/kg; bevacizumab was administered by IP injection at 10 mg/kg, sorafenib was administered orally at 60 mg/kg (for a total of 9 doses), and the control IgG (palivizumab, an antibody of the same isotype as DX-2240) was administered by IP injection at 20 mg/kg at the indicated dosing start dates and dosing regimens. An additional positive control group (group 13) was included: these animals were dosed with gemcitabine at 40 mg/kg Q3d for a total of four doses.
Tumor size was evaluated every three to four days using calipers.

The subject of test [2] is BxPC-3 human pancreas cancer model. Description: BxPC-3 pancreas cancer model, dosing schedules, mean tumor volume (Example 5). As to conditions: 20 mg/kg IP Q2D x10 from day 1, implanted tumor fragments. As for the experimental part:
Female nude mice (nu/nu) were divided into 14 groups. Animals in groups 1-12 were implanted subcutaneously by trocar with BxPC3 tumor fragments harvested from growing tumors in nude mice hosts. Mice in groups 13-14 were injected subcutaneously with approximately 1×10^7 BxPC-3 cells from tissue culture. When injected tumors grew to approximately 104 mm^3 in size (about 19 days following implantation) and implanted tumors grew to approximately 110 mm^3 in size (about 22 days following implantation) animals were pair-matched by tumor size into treatment and control groups. Animals from groups 1 and 2 were used to evaluate tumor vasculature. Animals from groups 13 and 14 were used to compare effects of DX-2240 on tumors formed from cell injection.
Treatment was initiated after the animals were pair-matched (day 1). Animals in all groups were dosed by weight (10 ml/kg). The control IgG and DX-2240 were administered by IP injection at 20 mg/kg, and bevacizumab and the rat α-mouse VEGF IgG antibody were administered by IP injection at 10 mg/kg once every three days. Dosing was initiated on day −3, 1, 5, 6, 10 or 20.
Individual and group mean tumor volumes were recorded twice weekly from day 1 until day 39.

The next test relates to tumor vasculature. The test is described as follows: Lectin staining of tumors (tumor vasculature, Example 5). Also: unit not given here. The settings on record: 20 mg/kg IP Q2D from day 1, BxPC3 tumors. Here is the method:
To determine changes in tumor vasculature, three animals from each of groups 1 and 2 were randomly selected for destructive sample collection, including tumor and serum on days 5, 10, 15, and 20. Animals were injected IV with 150 μL of a biotinylated-lectin solution (no injections on day 5 and 15). Five minutes later, animals were perfused by intracardiac injection with a 1% paraformaldehyde solution in PBS for 3 minutes. Tumors were then collected, placed in the perfusion solution, and sent immediately for analysis. Blood was collected by cardiac puncture and serum extracted, flash frozen in liquid nitrogen, and stored at −80° C.

Test [3] concerns DU 145 human prostate tumor model. Description: DU 145 prostate tumor model, mean tumor volume (Example 6). The settings on record: 20 mg/kg IP Q2D x17 from day 1. As for the experimental part: Male nude mice (nu/nu) were injected subcutaneously with DU 145 cells harvested from tissue culture (˜1×10^7 cells/mouse). When tumors grew to approximately 95 mm^3 in size (about 7 days following injection), animals were pair-matched by tumor size into treatment and control groups.
Treatment was initiated after the animals were paired-matched (day 1). Animals in control and treatment groups were dosed by weight (10 ml/kg). DX-2240 and the control IgG (palivizumab) were administered by IP injection either once every other day for seventeen treatments beginning day 1 or once every four days for nine treatments beginning day 1. Sorafenib was dosed per os via gavage once daily for nine treatments beginning day 15. To serve as a control, the control IgG was administered every other day for seventeen treatments beginning day 1. Individual and group mean tumor volumes were recorded twice weekly from day 1 until day 57.

Consider `Nc1ccn([C@@H]2O[C@H](CO)[C@@H](O)C2(F)F)c(=O)n1` [gemcitabine], for which the Tumor volume in test [1] (day 1, 40 mg/kg Q3d, four doses (positive control group 13)) stood at 106.5 mm^3; in test [1] (day 3, 40 mg/kg Q3d, four doses (positive control group 13)), 144.1 mm^3; in test [1] (day 7, 40 mg/kg Q3d, four doses (positive control group 13)), 214.9 mm^3; in test [1] (day 10, 40 mg/kg Q3d, four doses (positive control group 13)) it was 280.8 mm^3; in test [1] (day 14, 40 mg/kg Q3d, four doses (positive control group 13)) it was 347.7 mm^3; in test [1] (day 21, 40 mg/kg Q3d, four doses (positive control group 13)), 686.1 mm^3. Besides, the Tumor volume in test [1] (day 24, 40 mg/kg Q3d, four doses (positive control group 13)) was 848.1 mm^3; in test [1] (day 28, 40 mg/kg Q3d, four doses (positive control group 13)) it was 1084.8 mm^3; in test [1] (day 31, 40 mg/kg Q3d, four doses (positive control group 13)), 1325.2 mm^3.

Take `CNC(=O)c1cc(Oc2ccc(NC(=O)Nc3ccc(Cl)c(C(F)(F)F)c3)cc2)ccn1` [sorafenib]: the “tumor size as compared to control” value in test [1] (as single agents) is given as “reduced tumor size”.

Regarding “Control IgG: palivizumab, an antibody of the same isotype as DX-2240 [reference compound]”, the “calculated tumor growth rate, After Avastin” value in test [1] (DX-2240 or control IgG 20 mg/kg IP Q2d from day 1, after bevacizumab 10 mg/kg IP Q3d (twenty day pretreatment groups)) is given as 23.8 ± 8.6; in test [1] (DX-2240 or control IgG 20 mg/kg IP Q2d from day 1, after bevacizumab 10 mg/kg IP Q3d started at day 10), 33.3 ± 6.6. Further, the “calculated tumor growth rate, Before Avastin (Day 21)” value in test [1] (DX-2240 or control IgG 20 mg/kg IP Q2d from day 1, before bevacizumab (twenty day pretreatment groups)) is recorded as 28.3 ± 5.2. Further, the “calculated tumor growth rate, Before Avastin (Day 10)” value in test [1] (DX-2240 or control IgG 20 mg/kg IP Q2d from day 1, before bevacizumab start at day 10) is 41.1 ± 9.0. Also, the “# of stable tumor growths or tumor regressions” value was 1/8 in test [1] (DX-2240 or control IgG from day 1, bevacizumab (Avastin) after twenty day pretreatment) and 0/8 in test [1] (DX-2240 or control IgG from day 1, bevacizumab (Avastin) from day 10). The Tumor volume is 106.9 mm^3 in test [1] (day 1, 20 mg/kg IP Q2d from day 1); 164.7 mm^3 in test [1] (day 3, 20 mg/kg IP Q2d from day 1); 293.2 mm^3 in test [1] (day 7, 20 mg/kg IP Q2d from day 1); 366.4 mm^3 in test [1] (day 10, 20 mg/kg IP Q2d from day 1); 521.8 mm^3 in test [1] (day 14, 20 mg/kg IP Q2d from day 1); 907.5 mm^3 in test [1] (day 21, 20 mg/kg IP Q2d from day 1). The Tumor volume in test [1] (day 24, 20 mg/kg IP Q2d from day 1) is on record as 1062.0 mm^3; in test [1] (day 28, 20 mg/kg IP Q2d from day 1), 1354.0 mm^3; in test [1] (day 31, 20 mg/kg IP Q2d from day 1) it was 1669.1 mm^3. The mean tumor volume in test [2] (day 1) turned out to be 107.6 mm^3; in test [2] (day 4) it was 180.1 mm^3; in test [2] (day 8) it was 237.7 mm^3; in test [2] (day 11), 249.9 mm^3; in test [2] (day 15) it was 355.9 mm^3; in test [2] (day 18), 300.0 mm^3. Further, the mean tumor volume in test [3] (day 1) is 94.9 mm^3; in test [3] (day 5), 125.7 mm^3; in test [3] (day 9), 195.1 mm^3; in test [3] (day 13) it was 293.5 mm^3; in test [3] (day 15), 320.9 mm^3; in test [3] (day 19), 400.7 mm^3. In addition, the mean tumor volume in test [3] (day 23) was determined as 417.8 mm^3; in test [3] (day 26), 487.6 mm^3; in test [3] (day 29), 450.5 mm^3; in test [3] (day 33) it was 501.1 mm^3; in test [3] (day 36), 529.3 mm^3. Further, the entries for the “lectin staining, High intensity (3+)” value with tumor vasculature (Day 10) and with tumor vasculature (Day 20) were 19242 and 7824, respectively. The “lectin staining, Low intensity (1+)” value was 1214685 with tumor vasculature (Day 10) and 222879 in the test on tumor vasculature (Day 20). The “lectin staining, Medium intensity (2+)” value is 3148400 with tumor vasculature (Day 10) and 272402 in the test on tumor vasculature (Day 20).
